Data taken from patent publication EP4790048A1, “S1PR4 REGULATOR COMPOUND FOR AUTOIMMUNE DISEASE TREATMENT AND APPLICATION THEREOF” (Shengyuan Zetong (Shanghai) Pharmaceutical Co., Ltd, priority 2023, dated 2025).
Read-outs that look alike come from different tables or passages of the source.

Assays:
[1] = molecular target: T1, hS1P1 (Homo sapiens, UniProt P21453); test: Tango β-arrestin recruitment luciferase assay, Tango-hS1P1-CHO; format: cell-based; details: S1PR1; Tango-S1PR1-CHO-K1 cells; mean ± SD; read-out: EC50
T1 construct: expressed in transfected cells; host or cells: CHO
T1 sequence (P21453 whole entry): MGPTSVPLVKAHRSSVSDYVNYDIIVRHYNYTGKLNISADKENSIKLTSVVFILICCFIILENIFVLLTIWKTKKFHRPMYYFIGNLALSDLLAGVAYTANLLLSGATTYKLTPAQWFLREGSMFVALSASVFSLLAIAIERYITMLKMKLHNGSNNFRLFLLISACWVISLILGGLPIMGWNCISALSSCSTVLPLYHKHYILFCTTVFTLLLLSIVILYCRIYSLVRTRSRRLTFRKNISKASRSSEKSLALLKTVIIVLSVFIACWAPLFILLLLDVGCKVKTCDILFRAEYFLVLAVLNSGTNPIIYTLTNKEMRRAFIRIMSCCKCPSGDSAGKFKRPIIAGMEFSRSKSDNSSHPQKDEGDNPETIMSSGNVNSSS
Procedure, shortened: (§1)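 CHO Tango cells (receptor–V2 tail–TEV/tTA fusion, β-arrestin 2–TEV, UAS-luciferase reporter) plated overnight (20 h) at 37°C, then treated 20 h with compounds, top final 45 µM, 9 five-fold dilutions, triplicates. Luciferase luminescence read; BAF-312 positive control at 1 µM (S1PR1) or 25 µM (S1PR4).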

[2] = molecular target: T2, hS1P4 (Homo sapiens, UniProt O95977); test: Tango β-arrestin recruitment luciferase assay, Tango-hS1P4-CHO; format: cell-based
T2 construct: expressed in transfected cells; host or cells: CHO
T2 sequence (O95977 1-384): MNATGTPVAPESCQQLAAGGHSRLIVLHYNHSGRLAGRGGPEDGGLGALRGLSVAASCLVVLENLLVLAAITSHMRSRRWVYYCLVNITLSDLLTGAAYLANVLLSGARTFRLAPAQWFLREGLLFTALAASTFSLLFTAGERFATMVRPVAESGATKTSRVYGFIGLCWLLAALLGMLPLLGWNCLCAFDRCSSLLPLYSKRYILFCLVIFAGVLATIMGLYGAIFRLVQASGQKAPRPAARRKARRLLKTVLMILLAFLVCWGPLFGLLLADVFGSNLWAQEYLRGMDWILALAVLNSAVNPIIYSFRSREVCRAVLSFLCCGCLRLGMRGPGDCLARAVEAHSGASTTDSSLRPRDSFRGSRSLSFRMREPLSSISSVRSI
Procedure, shortened: as §1

[3] = tested on: hS1P4; test: as above; format: cell-based, human; details: S1PR4 versus S1PR1, β-arrestin recruitment EC50
Procedure, shortened: as §1

[4] = molecular target: T3, S1PR3 (Homo sapiens, UniProt Q99500); test: β-arrestin recruitment, PathHunter CHO-K1-S1PR3 cells; format: cell-based; details: mean ± SD
T3 construct: expressed in transfected cells
T3 sequence (Q99500 whole entry, species assumed): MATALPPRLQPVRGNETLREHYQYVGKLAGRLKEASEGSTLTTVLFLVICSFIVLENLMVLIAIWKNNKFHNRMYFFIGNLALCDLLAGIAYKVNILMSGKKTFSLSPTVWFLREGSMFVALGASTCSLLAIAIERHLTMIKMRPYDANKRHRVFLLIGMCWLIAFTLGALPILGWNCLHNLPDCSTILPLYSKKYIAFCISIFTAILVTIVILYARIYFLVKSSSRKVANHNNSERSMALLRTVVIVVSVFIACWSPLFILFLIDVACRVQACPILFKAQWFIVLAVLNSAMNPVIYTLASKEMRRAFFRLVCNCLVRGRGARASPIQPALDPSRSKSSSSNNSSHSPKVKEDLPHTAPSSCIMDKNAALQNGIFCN

[5] = Pharmacokinetic property testing in rats; format: in vivo, SD rats; details: for CL_obs / Vss_obs / AUC(0-t) / Cmax / half-life / Tmax / F (%): male SD rats; for AUC(0-t) / Cmax / half-life / Tmax / bioavailability: Sprague-Dawley, rat, in vivo; for Tmax: 3 per group; for bioavailability: male, oral, 10 mg/kg; for F (%): oral bioavailability, PO 10 mg/kg vs IV 1 mg/kg
Excerpt: In the structure-activity relationship discussion, the inventors obtained key compound 22. Based on compound 22, the polar head of the compound was modified as chiral pyrrolidine carboxylic acid, yielding selective S1PR4 agonists 30 and 67. We conducted pharmacokinetic property analyses on compounds 22, 30, and 67, respectively.

[6] = tested on: mouse; test: DSS mouse acute UC model, dosing concurrent with modeling (Example 7); format: in vivo; details: intragastric, Compound 30 0.3, 1, 3 mg/kg, Compound 67 1 mg/kg; for colon length: positive control RPC1063 1 mg/kg
Method: Mouse models were established using DSS, with the protocol being 2.5% DSS in drinking water for 5 days followed by ad libitum normal drinking water for 2 days. Intragastric administration was performed concurrently with modeling, and RPC1063 was used as the positive control drug. The specific groupings were as follows: RPC1063 was administered intragastrically at 1 mg/kg. Compound 30 was tested at three doses: 0.3 mg/kg, 1 mg/kg, and 3 mg/kg. Compound 38 was administered at 5 mg/kg, while Compounds 53, 67, 77, and 80 were each administered at 1 mg/kg.

[7] = tested on: BALB/c mice; test: Imiquimod-induced mouse psoriasis model; format: in vivo
Excerpt: The imiquimod-induced mouse psoriasis model is a commonly used model for psoriasis research. This model uses the topical immune modulator imiquimod (IMQ) to induce lesions similar to human psoriasis on the skin of mice.
• Mice: Female BALB/c mice, aged 6-8 weeks. • Imiquimod cream: 5% IMQ cream. • Experimental Procedures • Animal preparation: Mice were acclimated to the laboratory environment for at least one week.
Random grouping: Generally, 5 mice were included in each group. Specifically, the groups were as follows: adalimumab injection group for positive control; compounds 30 and 67 administered by gavage, divided into 3 dosage groups: 0.3, 1, and 3 mg/kg.
The hair on the backs of the mice in each group was shaved with a razor, covering an area of approximately 2 × 3 cm^2.
5% IMQ cream was applied daily to the shaved area on the mouse backs at a dose of 62.5 mg of IMQ cream for 6-7 consecutive days. Skin reactions of the mice were observed after 7 days, including erythema, scaling, and skin thickening.

[8] = S1PR4, Tango-S1PR4-CHO-K1 cells, mean ± SD, read-out: EC50
[9] = β-arrestin recruitment, 20 h drug treatment, top 45 µM, 9 serial 5-fold dilutions, positive control 25 µM BAF-312, read-out: Tango-hS1P4-CHO EC50
[10] = gavage 0.3, 1 and 3 mg/kg, after 7 days of IMQ
[11] = high dose of 3 mg/kg, compared with adalimumab

| Structure (SMILES) | EC50 [1] [nM] | EC50 [2, 8] [nM] | EC50 [2, 9] [nM] | selectivity over S1PR1 [3] | EC50 ([4]; read-out: EC50) [nM] | CL_obs ([5]; IV (1 mg/kg)) [mL/min/kg] | Vss_obs ([5]; IV (1 mg/kg)) [L/kg] | CL_obs ([5]; PO (10 mg/kg)) [mL/min/kg] | Vss_obs ([5]; PO (10 mg/kg)) [L/kg] | AUC(0-t) ([5]; IV (1 mg/kg)) [ng·h/mL] | Cmax ([5]; IV (1 mg/kg)) [ng/mL] | half-life ([5]; IV (1 mg/kg)) [h] | Tmax ([5]; IV (1 mg/kg)) [h] | AUC(0-t) ([5]; PO (10 mg/kg)) [ng·h/mL] | Cmax ([5]; PO (10 mg/kg)) [ng/mL] | half-life ([5]; PO (10 mg/kg)) [h] | Tmax ([5]; PO (10 mg/kg)) [h] | bioavailability [5] [%] | F (%) [5] [%] | DAI scores [6] | other results |
| --- | --- | --- | --- | --- | --- | --- | --- | --- | --- | --- | --- | --- | --- | --- | --- | --- | --- | --- | --- | --- | --- |
| CCc1cc(/C(C)=N/OCc2ccc(-c3ccccc3)c(C)c2)ccc1CN1CC[C@H](C(=O)O)C1 [Compound 30] | 87.6 ± 3.35 | 9.09 ± 0.67 | 9.09 | approximately 10 fold | > 10000 | 20.2 ± 7.33 | 3.59 ± 1.16 | 17 ± 1.3 | 4.08 ± 0.32 | 824 ± 284 | 438 ± 82.6 | 2.15 ± 0.06 | 0.08 | 9860 ± 794 | 1030 ± 91.9 | 2.78 ± 0.12 | 2 | 120 | 119.7 | favorable effects | EC50 [4]: no agonist activity; body weight [6]: concentration-dependent recovery; colon length [6]: significant efficacy; skin reactions (erythema, scaling, skin thickening) [7, 10]: significant alleviating effects at all concentrations in a dose-dependent manner; skin reactions (erythema, scaling, skin thickening) [7, 11]: therapeutic effects similar to those of adalimumab |
| CCc1cc(/C(C)=N/OCc2ccc(-c3cnc(F)cn3)c(C)c2)ccc1CN1CC[C@H](C(=O)O)C1 [Compound 67, (S, E)-1-(2-ethyl-4-(1-(((4-(5-fluoropyrazin-2-yl)-3-methylbenzyl)oxy)imino)ethyl)benzyl)pyrrolidine-3-carboxylic acid] | 195 ± 16 | 1.8 ± 0.43 | 1.8 | more than 100 fold | > 10000 | 19.8 ± 0.67 | 1.52 ± 0.02 | 25.8 ± 4.5 | 4.88 ± 1.17 | 836 ± 27 | 958 ± 45.9 | 1.18 ± 0.01 | 0.08 | 6370 ± 1510 | 986 ± 277 | 2.17 ± 0.11 | 1.83 ± 1.89 | 76.2 | 76.21 | favorable effects | body weight [6]: less body weight loss; colon length [6]: significant efficacy; skin reactions (erythema, scaling, skin thickening) [7, 10]: significant alleviating effects at all concentrations in a dose-dependent manner; skin reactions (erythema, scaling, skin thickening) [7, 11]: therapeutic effects similar to those of adalimumab |
